This note sets out measurements from patent publication US7211577B2, “Water-soluble phenylpyridazine derivative and medicine containing the same” (Kowa Co., Ltd., priority 2003, dated 2007).

Structures are written as SMILES. Where a name gives a salt, the structure may show the parent alone. Read-outs that look alike come from different tables or passages of the source.

The nature of one series: Water solubility test. In kind it is physicochemical. Particulars: for Solubility (%): purified water, from amount of water required for dissolution. The protocol:
Experiment 2 (Water Solubility Test) Testing Method
Each sample compound was weighed in the amount shown in Table 3, to which purified water was added in 0.05 mL aliquots. The solubility (%) of the compound was determined based on the amount of water required for its dissolution.

For series [1], the system named is interleukin-1β production. As to the kind of experiment: Inhibitory activity against interleukin-1β production (LPS-stimulated HL-60 cells, ELISA). In kind it is cell-based. Particulars: Table 1, lipopolysaccharide 10 μg/mL, culturing for 3 days, read-out: IL-1β production inhibiting activity IC50. On the procedure: Inhibitory Activity Against Interleukin-1β Production
HL-60 cells were cultured for 4 days until confluence on RPMI 1640 medium with 10% fetal bovine serum (FBS) added thereto. The medium was centrifuged. The supernatant was discarded, and the cells were then suspended at 1×10^6 cells/mL on RPMI 1640 medium with 3% FBS, and lipopolysaccharide was added to give a final concentration of 10 μg/mL. The culture was inoculated at 1 mL/well to a 24-well plate. A sample compound was added at 1 μL/well, followed by culturing for 3 days. Three days later, the amount of interleukin-1β in each culture was determined by ELISA. Each IC50 value was determined by a comparison in yield with a control to which no test sample was added.
(ELISA stands for enzyme-linked immunosorbent assay.)

Series [2] is described as follows: Oral absorbability test on rats and/or mice. The class given is in vivo. Particulars: orally administered to mice and/or rats, as in Experiment 3. An excerpt:
Experiment 4 (Oral Absorbability Test on Rats and/or Mice)
In a similar manner as in Experiment 3, test compounds of Examples 23, 25, 143, 193, 245, 246, 247, 248 and 249 were orally administered to mice and/or rats to test their oral absorbability.

Series [3] can be described thus: Oral absorbability test on rats (plasma levels by HPLC). The conditions noted are these: male SD rats, oral 10 mg/5 mL/kg, suspension in 0.5% MC, plasma 0.25-8 hours. The class given is in vivo. The protocol: Experiment 3 (Oral Absorbability Test on Rats)
The compound of Example 83 and the comparative compound 3 were suspended at 2 mg/mL with a 0.5% MC solution in mortars, respectively, and were orally administered to male SD rats at 10 mg/5 mL/kg. Upon elapsed time of 0.25, 0.5, 1, 2, 4, 6 and 8 hours after the administration, blood samples were collected and then centrifuged to provide plasma samples. The plasma levels of the respective compounds were determined by HPLC. […] The compound of Example 83 is, therefore, useful as an orally dosable medicine.

One may read the IC50 as the point on the concentration scale where inhibition reaches its midpoint. Regarding `COc1ccc(-c2cc(CN(C)C)c(=O)n(CC3CC3)n2)cc1F.Cl` [Example 14, 2-cyclopropylmethyl-4-dimethylaminomethyl-6-(3-fluoro-4-methoxyphenyl)-2H-pyridazin-3-one hydrochloride], the “Solubility (%)” value in the series “Water solubility test” is 0.8%. In addition, the IC50 in series [1] (Homo sapiens, 72 h) is 3.61 µM.
As to `COc1ccc(-c2cc(CN(CCO)CCO)c(=O)n(CC3CC3)n2)cc1F.Cl` [Example 23, 4-N,N-bis(2-hydroxyethyl)aminomethyl-2-cyclopropylmethyl-6-(3-fluoro-4-methoxyphenyl)-2H-pyridazin-3-one hydrochloride], the “Oral absorbability (FIGS. 2 to 6)” value in series [2] is “good absorbability”. In “Water solubility test”, the “Solubility (%)” value stood at 10%. The concentration for half-maximal inhibition (IC50) in series [1] was determined as 0.33 µM.
For `Cc1ccc(-c2cc(CN(CCO)CCO)c(=O)n(CC(C)C)n2)cc1` [Example 49, 4-N,N-bis(2-hydroxyethyl)aminomethyl-6-(4-methylphenyl)-2-isobutyl-2H-pyridazin-3-one hydrochloride], the IC50 in series [1] turned out to be 3.53 µM.
As for `Cc1cc(-c2cc(CN3CCN(C)CC3)c(=O)n(CC(C)C)n2)ccc1F.Cl.Cl` [Example 83, 6-(4-fluoro-3-methylphenyl)-2-isobutyl-4-(4-methyl-1-piperazinyl)methyl-2H-pyridazin-3-one dihydrochloride], in series [3], the “Oral absorption (plasma levels, FIG. 1)” value is “good absorption”.
For the molecule `CC(C)Cn1nc(-c2ccc(F)c(F)c2)cc(CN(CCO)CCO)c1=O.Cl` [Example 108, 4-N,N-bis(2-hydroxyethyl)aminomethyl-6-(3,4-difluorophenyl)-2-isobutyl-2H-pyridazin-3-one hydrochloride], in “Water solubility test”, the “Solubility (%)” value is more than 20%. Moreover, in series [1], the concentration for half-maximal inhibition (IC50) is 3.44 µM.
As a reminder, the melting point is the temperature of the solid-liquid transition. For the molecule `Cc1cc(-c2cc(CN3CCN(C)CC3)c(=O)n(CC=Cc3ccc(Cl)cc3)n2)ccc1F.Cl.Cl` [Example 143, 2-(4-chlorocinnamyl)-6-(4-fluoro-3-methylphenyl)-4-(4-methyl-1-piperazinyl)methyl-2H-pyridazin-3-one dihydrochloride], the melting point was 229.7 to 243.3 °C (dec.). For the same molecule, the “Oral absorbability (FIGS. 2 to 6)” value in series [2] is “good absorbability”. The “Solubility (%)” value in “Water solubility test” is listed as 10%.
On to `CSc1ccc(-c2cc(CN(C)C)c(=O)n(CC3CC3)n2)cc1.Cl` [Example 153, 2-cyclopropylmethyl-4-dimethylaminomethyl-6-[4-(methylthio)phenyl]-2H-pyridazin-3-one hydrochloride], for which the melting point was in the range of 230.2 to 232.3 °C. In “Water solubility test”, the “Solubility (%)” value is listed as 0.5%. For the same molecule, the IC50 in series [1] (Homo sapiens, 72 h) was found to be 0.58 µM.
Consider `COc1ccc(-c2cc(CN3CCN(C)CC3)c(=O)n(Cc3ccc(F)c(F)c3)n2)cc1F.Cl.Cl` [Example 245, 2-(3,4-difluorobenzyl)-6-(3-fluoro-4-methoxyphenyl)-4-(4-methyl-1-piperazinyl)methyl-2H-pyridazin-3-one dihydrochloride], for which the “Oral absorbability (FIGS. 2 to 6)” value in series [2] is given as “good absorbability”. In the series “Water solubility test”, the “Solubility (%)” value was 10%.
The like results for `COc1ccc(-c2cc(CN(C)C)c(=O)n(Cc3ccc(F)c(F)c3)n2)cc1F.Cl` [Example 246, 2-(3,4-difluorobenzyl)-4-dimethylaminomethyl-6-(3-fluoro-4-methoxyphenyl)-2H-pyridazin-3-one hydrochloride] were, in that order, “good absorbability” and 2%.
On to `Cc1cc(-c2cc(CN3CCN(C)CC3)c(=O)n(CCCc3ccc(Cl)cc3)n2)ccc1F.Cl.Cl` [Example 247, 2-[3-(4-chlorophenyl)propyl]-6-(4-fluoro-3-methylphenyl)-4-(4-methyl-1-piperazinyl)methyl-2H-pyridazin-3-one dihydrochloride], for which, in series [2], the “Oral absorbability (FIGS. 2 to 6)” value is “good absorbability”. Besides, the “Solubility (%)” value in “Water solubility test” amounted to 10%.
With `COc1ccc(-c2cc(CN3CCN(C)CC3)c(=O)n(CC=Cc3ccc(Cl)cc3)n2)cc1F.Cl.Cl` [Example 248, 2-(4-chlorocinnamyl)-6-(3-fluoro-4-methoxyphenyl)-4-(4-methyl-1-piperazinyl)methyl-2H-pyridazin-3-one dihydrochloride], the “Oral absorbability (FIGS. 2 to 6)” value in series [2] is “good absorbability”. Also, the “Solubility (%)” value in the series “Water solubility test” amounted to 0.06%.
The like results for `COc1ccc(-c2cc(CN3CCN(CCO)CC3)c(=O)n(CC=Cc3ccc(Cl)cc3)n2)cc1F.Cl.Cl` [Example 249, 2-(4-chlorocinnamyl)-6-(3-fluoro-4-methoxyphenyl)-4-[4-(2-hydroxyethyl)-1-piperazinyl]methyl-2H-pyridazin-3-one dihydrochloride] were, in that order, “good absorbability” and 0.03%.
For the molecule `CNC(=O)c1cc(-c2ccc(OC)c(F)c2)nn(CC2CC2)c1=O` [compound 3, reference compound], the “Oral absorption (plasma levels, FIG. 1)” value in series [3] is “no substantial absorption”. Further, in “Water solubility test” (100 mL purified water added), the “Dissolution in the added water (in words)” value was “(insoluble)”. In addition, the “Solubility (%)” value in the series “Water solubility test” was less than 0.001%.
